Assay results published in patent US11911394B2, “Compound and method for the prevention of transmission of influenza virus” (Hoffmann-La Roche Inc., priority 2019, dated 2024).

Legend:
Type in all cases: in vivo
[1] = tested on: influenza A virus A/England/195/2009; experiment: Example 1 ferret transmission study (direct contact and respiratory droplet), plaque assay of nasal wash; conditions: for Donor ferrets positive for influenza as detected by the plaque assay: donor ferrets treated 24 h post infection; for Donor ferrets positive for influenza as detected by the plaque assay / Sentinel DC ferrets positive for influenza as detected by the plaque assay / Sentinel RD ferrets positive for influenza as detected by the plaque assay: positive/total; for respiratory droplet transmission: from treated donor ferrets to sentinels; for mean time to virus shedding, direct contact sentinels: sentinels exposed to treated donors, control 4.25 days; for Sentinel DC ferrets positive for influenza as detected by the plaque assay: untreated direct contact sentinels of treated donors; for mean time to virus shedding, respiratory droplet exposed sentinels: untreated donors 4.5 days, baloxavir value from the one infected sentinel; for Sentinel RD ferrets positive for influenza as detected by the plaque assay: untreated respiratory droplet sentinels of treated donors
[2] = tested on: Influenza A/Perth/265/2009 H1N1pdm09 virus; experiment: Example 2 ferret contact transmission study, TCID50 assay of nasal wash; conditions: for treated donors TCID50-positive (shedding detectable infectious virus) at donor endpoint: Example 2, all experiment schedules (Experiments 1-3); for recipient ferrets shedding detectable infectious virus (TCID50) following contact exposure to donor: donor treated 1 DPI; for recipient ferrets shedding detectable infectious virus (TCID50) following contact exposure to donor / donors shedding detectable infectious virus (TCID50) at 3 DPI endpoint / donors shedding detectable infectious virus (TCID50) at 4 DPI endpoint / ferrets shedding infectious virus (TCID50), FIG. 13A recipient results / donors shedding infectious virus (TCID50) at 4 DPI endpoint: positive/total; for donors shedding detectable infectious virus (TCID50) at 3 DPI endpoint / donors shedding detectable infectious virus (TCID50) at 4 DPI endpoint: treatment 1 DPI; for donor group titer (TCID50) compared to placebo group: baloxavir at 2 DPI (p≤0.05), 3 DPI and 4 DPI (p≤0.001), oseltamivir on 2-4 DPI; for ferrets shedding infectious virus (TCID50), FIG. 13A recipient results: donor treated 2 DPI, printed as donors at 4 DPI endpoint; for donors shedding infectious virus (TCID50) at 4 DPI endpoint: treatment 2 DPI; for effect of donor treatment on contact transmission to naïve ferrets: Example 2 Experiments 1-3
[3] = tested on: Influenza A/Perth/265/2009 H1N1pdm09 virus; experiment: Example 2 ferret contact transmission study, quantitative real-time RT-PCR of nasal wash; conditions: for donor viral copy numbers (qRT-PCR) compared to placebo: 3 DPI (p≤0.05), nasal wash; for recipients with influenza virus RNA detected (qRT-PCR) / ferrets with viral RNA detected (qRT-PCR), FIG. 13B recipient results: positive/total; for ferrets with viral RNA detected (qRT-PCR), FIG. 13B recipient results: Example 2 Experiment 3, printed as donors
Procedure: The active form baloxavir acid (S-033447, hereafter BXA) and pro-drug oseltamivir phosphate (hereafter OST) was kindly provided by Shionogi & Co., Ltd., Japan. The vehicle for BXA delivery was methyl cellulose (Sigma-Aldrich, Australia) in 0.5 w/v % aqueous solution prepared with sterile water (hereafter MC solution). BXA in suspension with MC solution (1 mg/mL) was prepared using an agate mortar and pestle, and was delivered to reversibly anaesthetised animals in a single treatment consisting of 4 subcutaneous injections at 4 locations on the dorsal region (total dose 4 mg/kg per animal). Animals in the placebo group were dosed identically using MC solution (1 mL/kg) alone. OST doses (10 mg/mL) were prepared in sugar solution (1 g/mL) and delivered bis in die (8 hr interval) to non-sedated ferrets by the oral route (total dose 10 mg/kg/day).
Viral RNA was extracted from 200 μL nasal wash samples using the NucleoMag VET isolation kit (Macherey Nagel) on the KingFisher Flex (ThermoFisher Scientific) platform according to manufacturer's instructions. Influenza virus M gene copy number in 4 μL RNA was determined by quantitative real-time RT-PCR performed using the SensiFAST Probe Lo-ROX One-Step qRT-PCR System Kit (Bioline) on the ABI 7500 Real Time PCR System (Applied Biosystems) under the following cycling conditions: 45° C. for 10 min, 1 cycle; 95° C. for 2 min, 1 cycle; 95° C. for 5 sec then 60° C. for 30 sec, 40 cycles. Sample RNA was quantitated using influenza A RNA standards of known copy number, kindly provided by Seqirus, Australia. Universal influenza A real-time primer/probe sets were kindly provided by CDC Influenza Branch (Atlanta, USA) (sequences available upon request). Results were analysed by 7500 Fast System SDS software v1.5.1.
Data analysis was performed using Graphpad Prism (GraphPad Software, v5.01). Nasal wash viral titres of all ferrets on each day post inoculation/exposure were compared by a matched two-way analysis of variance (ANOVA) followed by Tukey's multiple comparisons test. Quantitative real time RT-PCR was performed on influenza control RNA of known copy number to generate a standard curve (linear regression of influenza cycle threshold (Ct) values vs. copy number). Viral copy numbers present in nasal wash RNA samples on the same assay were calculated using the formula of the standard curve. Influenza A copy numbers for each group of ferrets were compared by a matched two-way ANOVA followed by Tukey's multiple comparisons test. p<0.05 was considered statistically significant.
(§1) This study consisted of three separate Experiments using different schedules of antiviral treatment and timing of naïve animal co-housing. In each experiment, twenty-four ferrets were randomly assigned to three groups (n=8): BXA, OST and placebo. Within each group, n=4 ferrets were designated as treated donor ferrets, and n=4 as naïve recipients. On 0 DPI (days post inoculation) for each experiment, all donor ferrets (each individually housed) were intranasally inoculated with influenza A/Perth/265/2009 at […] tissue culture infective doses (TCID50) in 40 μL of phosphate-buffered saline (PBS). As described above, donors in the BXA and placebo groups received a single antiviral treatment, whereas OST-group donors were treated daily until endpoint (excluding cull day). At the designated time point, naïve recipient ferrets were co-housed with treated donor ferrets (1:1 per cage) for a contact exposure period of 48 hr.
Experiment 1: Antiviral treatment for all donors commenced at 1 DPI, and naïve recipient ferrets were co-housed immediately following treatment. Body weight and temperature were monitored daily from all animals. Daily nasal wash samples were collected 1 mL of PBS from 1 DPI to 3 DPI for donor animals, and 1 day post exposure (DPE) to 10 DPE for recipient animals. Donors were sacrificed at 3 DPI (2 DPE), and blood was collected from BXA- and placebo-treated ferrets by cardiac puncture. […]

A/Perth/265/2009 virus = experiment: Example 2 ferret contact transmission study, serology (HI assay) of recipient sera; conditions: for recipients demonstrating antibody responses to donor virus (serology): positive/total
Text: Sera were collected from endpoint recipient blood samples by centrifugation, and non-specific inhibitors of agglutination were removed by treatment with receptor-destroying enzyme (RDE) (Denka Seiken) according to manufacturer's instructions. Treated sera were adsorbed with turkey RBCs prior to HI assay to remove non-specific agglutination factors. Briefly, sera (initially 1:20 dilution) were serially diluted twofold in PBS in V-bottom 96-well plates (final row left as PBS negative control). A/Perth/265/2009 virus adjusted to 4 haemagglutination units in 25 μL was mixed to all sample wells for 1 hr incubation at room temperature, followed by 45 min incubation of 1% turkey RBC. […] HI titre was calculated as the reciprocal of the highest serum dilution at which agglutination was inhibited.
as §1
(§2) Experiment 2: Antiviral treatment commenced at 1 DPI, and recipient co-housing was delayed until 24 hr following treatment (2 DPI). Body weight and temperature were monitored daily from all animals. Daily nasal wash samples were collected using 1 mL of PBS from 1 DPI to 4 DPI for donor animals, and 1 DPE to 10 DPE for recipient animals. Donors were sacrificed at 4 DPI (2 DPE), and blood was collected from BXA- and placebo-treated ferrets by cardiac puncture. Recipients were maintained until 16 DPE, at which time blood was collected by cardiac puncture.
as §2, with “Experiment 3:” for “Experiment 2:”, “at 2” for “at 1”, “and recipients were co-housed immediately afterwards.” for “and recipient co-housing was delayed until 24 hr following treatment (2 DPI).”

[4] = Example 2 Experiment 1, baloxavir at 2 DPI (p≤0.05) and 3 DPI (p≤0.001)
[5] = Example 2 Experiment 1, co-housing 1 DPI
[6] = Example 2 Experiment 2, co-housing 2 DPI
[7] = Example 2 Experiment 3, baloxavir at 3 and 4 DPI (p≤0.001), oseltamivir on 3 DPI (p≤0.05)
[8] = Example 2 Experiment 3, co-housing 2 DPI

| SMILES | Donor ferrets positive for influenza as detected by the plaque assay [1] | respiratory droplet transmission [1] [%] | mean time to virus shedding, direct contact sentinels [1] [days] | Sentinel DC ferrets positive for influenza as detected by the plaque assay [1] | mean time to virus shedding, respiratory droplet exposed sentinels [1] [days] | Sentinel RD ferrets positive for influenza as detected by the plaque assay [1] | treated donors TCID50-positive (shedding detectable infectious virus) at donor endpoint [2] | donor group titer (TCID50) compared to placebo-group [2, 4] | recipient ferrets shedding detectable infectious virus (TCID50) following contact exposure to donor [2, 5] | donors shedding detectable infectious virus (TCID50) at 3 DPI endpoint ([2]; Example 2 Experiment 1) | donor group titer (TCID50) compared to placebo group ([2]; Example 2 Experiment 2) | recipient ferrets shedding detectable infectious virus (TCID50) following contact exposure to donor [2, 6] | donors shedding detectable infectious virus (TCID50) at 4 DPI endpoint ([2]; Example 2 Experiment 2) | donor group titer (TCID50) compared to placebo-group [2, 7] | ferrets shedding infectious virus (TCID50), FIG. 13A recipient results [2, 8] | donors shedding infectious virus (TCID50) at 4 DPI endpoint ([2]; Example 2 Experiment 3) | effect of donor treatment on contact transmission to naïve ferrets [2] | donor viral copy numbers (qRT-PCR) compared to placebo ([3]; Example 2 Experiment 1) | recipients with influenza virus RNA detected (qRT-PCR) ([3]; Example 2 Experiment 1) | recipients with influenza virus RNA detected (qRT-PCR) ([3]; Example 2 Experiment 2) | further results |
| --- | --- | --- | --- | --- | --- | --- | --- | --- | --- | --- | --- | --- | --- | --- | --- | --- | --- | --- | --- | --- | --- |
| O=C1c2c(O)c(=O)ccn2N([C@@H]2c3ccccc3SCc3c2ccc(F)c3F)[C@@H]2COCCN12 [baloxavir, baloxavir acid] | 3/4 | 25 | 5.5 | 4/4 | 8 | 1/4 | 0/4 and No | significantly lower | 1/4 | 0/4 | significantly lower | 1/4 | 0/4 | significantly lower | 2/4 | 0/4 | reduces | significantly reduced | 2/4 | 1/4 | mean viral titres compared to the placebo-group ([2]; Example 2, 24 hours following treatment, all experiment conditions (p≤0.05)): significantly reduced; frequency of infectious viral shedding in recipients ([2]; Example 2, donor treatment at 1 DPI): 25%; frequency of infectious viral shedding in recipients ([2]; Example 2, donor treatment at 2 DPI): 50%; infectious virus titers in the URT compared to both placebo and oseltamivir ([2]; Example 2, three independent experiments, single treatment of infected ferrets): significantly reduced; reduction in transmission ([2]; Example 2, treatment 48 hr post infection): 50%; reduction of transmission ([2]; Example 2, treatment within 24 hr of infection): 75%; donor group titer (TCID50) compared to oseltamivir group ([2]; Example 2 Experiment 2, 3-4 DPI (p≤0.01)): significantly lower; donor group titer (TCID50) compared to oseltamivir-group ([2]; Example 2 Experiment 3, 4 DPI (p≤0.001)): lower; donor mean viral copy number (qRT-PCR) ([3]; Example 2 Experiment 2, 3 DPI, no differences at any other days): reduced; ferrets with viral RNA detected (qRT-PCR), FIG. 13B recipient results [3]: 3/4; reduction of antibody responses in TCID50-negative recipients compared to titres in placebo-group recipients (A/Perth/265/2009 virus; Example 2 Exp. 2 and 3): 16-32 fold; reduction of antibody response in TCID50-negative ferret compared to TCID50-positive ferrets (A/Perth/265/2009 virus; Example 2 Experiment 2, baloxavir-group recipient): > 32 fold change; recipients demonstrating antibody responses to donor virus (serology) (A/Perth/265/2009 virus; Example 2 Experiment 2): 2/4; reduction of antibody titres in TCID50-negative recipients compared to TCID50-positive ferrets (A/Perth/265/2009 virus; Example 2 Experiment 3, TCID50-negative baloxavir-group recipients (2/4)): > 16 fold change |
| CCOC(=O)C1=C[C@@H](OC(CC)CC)[C@H](NC(C)=O)[C@@H](N)C1 [oseltamivir, oseltamivir phosphate, reference compound] | 4/4 | 100 | 5.5 | 4/4 | 9.3 | 3/4 | 4/4 | no significant difference | 4/4 | 4/4 | no difference | 4/4 | 4/4 | significantly lower | 4/4 | 4/4 | does not reduce | significantly reduced | 4/4 | 4/4 | recipients demonstrating evidence of infection by TCID50, qRT-PCR and serology ([2]; Example 2, all experimental conditions): 100%; ferrets with viral RNA detected (qRT-PCR), FIG. 13B recipient results [3]: 4/4; recipients demonstrating antibody responses to donor virus (serology) (A/Perth/265/2009 virus; Example 2 Experiment 2): 4/4 |
